The source of these data is ChEMBL document CHEMBL2016508, “Synthesis and biological activity of bi/tricyclic azasugars fused thiazolidin-4-one and thiazinan-4-one by microwave-assisted tandem Staudinger/aza-Wittig/cyclization” (2012).

SMILES strings stand for the structures. Active and inactive are the calls of the source. No cut-off for these calls is given here.

Test [1] concerns T-cell. Put plainly: Effect on proliferation of Balb/C mouse T cells at 50 uM after 72 hrs by MTT assay. Format: functional, cell-based.
Test [2] relates to T-cell. Put plainly: Effect on proliferation of Balb/C mouse T cells at 5 uM after 72 hrs by MTT assay. It is filed as functional, cell-based.
For test [3], the system named is YAC-1. The test is described as follows: Immunopotentiating activity in Balb/C mouse NK cells assessed as induction of killing activity against YAC-1 cells at 50 uM after 4 hrs by MTT assay. It is filed as functional.
Test [4] relates to YAC-1. Put plainly: Immunopotentiating activity in Balb/C mouse NK cells assessed as induction of killing activity against YAC-1 cells at 5 uM after 4 hrs by MTT assay. Format: functional.
Test [5] has as its system Saccharomyces cerevisiae. Put plainly: Inhibition of yeast alpha-glucosidase using PNPG as substrate at 100 uM preincubated for 10 mins prior substrate addition measured after 10 mins by UV-Vis spectrophotometry.
Test [6] deals with Prunus dulcis. The test is described as follows: Inhibition of almonds beta-glucosidase using D-(-)salicin as substrate at 100 uM preincubated for 10 mins prior substrate addition measured after 10 mins by UV-Vis spectrophotometry.
The test system of test [7] is Bacillaceae. Put plainly: Inhibition of Bacillaceae alpha-amylase using starch as substrate at 100 uM preincubated for 10 mins prior substrate addition measured after 10 mins by UV-Vis spectrophotometry.

As for `O=C1CS[C@H]2[C@@H](O)[C@@H](O)[C@H](O)CN12`, the result in test [1] and in test [2] was inactive. Moreover, the Activity came to 93% in test [3] and 72% in test [4]. Besides, the inhibition result in test [5] and in test [7] was “inactive” in each case. The inhibition in test [6] stood at 19%.

Regarding `O=C1c2ccccc2S[C@H]2[C@H](O)[C@H](O)[C@H](O)CN12`, the result in test [1], in test [2], in test [3] and in test [4] was inactive. Further, the inhibition entry in test [5], in test [6] and in test [7] was “inactive” each time.

As for `O=C1c2cccnc2S[C@H]2[C@H](O)[C@H](O)[C@H](O)CN12`, the outcome in test [1], in test [2], in test [3] and in test [4] was inactive. Moreover, the inhibition entry in test [5], in test [6] and in test [7] was “inactive” in each case.

Regarding `O=C1CS[C@H]2[C@H](O)[C@H](O)[C@H](O)CN12`, the result in test [1], in test [2], in test [3] and in test [4] was inactive. Besides, the inhibition entry in test [5] and in test [7] was “inactive” each time. For the same compound, the inhibition in test [6] was determined as 23%.

Turning to `O=C1c2ccccc2S[C@@H]2[C@H](O)[C@H](O)[C@H](O)CN12`, the result in test [1], in test [2], in test [3] and in test [4] was inactive. In addition, the inhibition entry in test [5], in test [6] and in test [7] was “inactive” each time.

In the case of `O=C1c2cccnc2S[C@@H]2[C@H](O)[C@H](O)[C@H](O)CN12`, the outcome in test [1] and in test [2] was inactive. In addition, the Activity in test [3] is 71%; in test [4] it was 45%. In addition, the inhibition entry in test [5], in test [6] and in test [7] was “inactive” in each case.

Turning to `O=C1CCS[C@H]2[C@H](O)[C@H](O)[C@H](O)CN12`, the outcome in test [1], in test [2], in test [3] and in test [4] was inactive. The inhibition entry in test [5] and in test [7] was “inactive” each time. The inhibition in test [6] worked out at 18%.

Take `O=C1c2ccccc2S[C@H]2[C@@H](O)[C@@H](O)[C@H](O)CN12`: the outcome in test [1] and in test [2] was inactive. For the same compound, the Activity in test [3] is 73%; in test [4] it was 46%. Further, the inhibition result in test [5], in test [6] and in test [7] was “inactive” throughout.

Regarding `O=C1CS[C@@H]2[C@@H](O)[C@@H](O)[C@H](O)CN12`, the outcome in test [1], in test [2], in test [3] and in test [4] was inactive. Further, the inhibition entry in test [5], in test [6] and in test [7] was “inactive” in each case.

On to `O=C1c2cccnc2S[C@H]2[C@@H](O)[C@@H](O)[C@H](O)CN12`, for which the result in test [1] and in test [2] was inactive. Further, the Activity in test [3] came out at 97%; in test [4], 67%. For the same compound, the inhibition result in test [5] and in test [7] was “inactive” in each case. This compound gave an inhibition in test [6] of 35%.

As to `O=C1CCS[C@H]2[C@@H](O)[C@@H](O)[C@H](O)CN12`, the result in test [1] and in test [2] was inactive. Moreover, the Activity is given as 45% in test [3] and 69% in test [4]. Further, the inhibition entry in test [5], in test [6] and in test [7] was “inactive” each time.

On to `O=C1CCS[C@@H]2[C@@H](O)[C@@H](O)[C@H](O)CN12`, for which the outcome in test [1], in test [2], in test [3] and in test [4] was inactive. The inhibition entry in test [5], in test [6] and in test [7] was “inactive” throughout.

Take `O=C1CCS[C@@H]2[C@H](O)[C@H](O)[C@H](O)CN12`: the result in test [1], in test [2], in test [3] and in test [4] was inactive. Besides, the inhibition entry in test [5], in test [6] and in test [7] was “inactive” throughout.

Consider `O=C1c2ccccc2S[C@@H]2[C@@H](O)[C@@H](O)[C@H](O)CN12`, for which the outcome in test [1], in test [2], in test [3] and in test [4] was inactive. The inhibition result in test [5], in test [6] and in test [7] was “inactive” in each case.

Turning to `O=C1c2cccnc2S[C@@H]2[C@@H](O)[C@@H](O)[C@H](O)CN12`, the result in test [1] and in test [2] was inactive. Besides, the Activity was determined as 81% in test [3] and 55% in test [4]. Moreover, the inhibition result in test [5] and in test [7] was “inactive” throughout. The inhibition in test [6] is 19%.

With `O=C1CS[C@@H]2[C@H](O)[C@H](O)[C@H](O)CN12`, the outcome in test [1] and in test [2] was inactive. Besides, the figures for the Activity in test [3] and in test [4] were 87% and 70%, respectively. Besides, the inhibition entry in test [5], in test [6] and in test [7] was “inactive” each time.
